Structures can show the parent of a compound that is named as a salt.
Tests used:
[1] = rats; cited from earlier work
[2] = system: human uterine tissue; conditions: cited from earlier work
[3] = in vivo, cited from earlier work
[4] = rats; cited from earlier work; remark: listed apart in the source
[5] = system: human breast tumor cells; conditions: cited from earlier work
[6] = system: rat uterine tissue; conditions: cited from earlier work
[7] = system: PC-3 cells; assay: growth inhibition assay (MTT), androgen-independent human prostate cancer cells; format: cell-based; conditions: concentrations of 5 μM or higher, 7 days of treatment, 575 nm
Experimental: (§1) [drawing 32] was synthesized as described in Example 4 without methylation at the 7-position of the steroid nucleus. The compound was evaluated for its inhibitory effect on androgen-independent human prostate cancer cells, DU145 cells and PC-3 cells, in a standard in vitro androgen-independent human prostate cancer assay.
(§2) DU145 and PC-3 human prostate cancer cell lines were obtained from the American Type Culture Collection, Rockville, Md. Eagle's minimum essential medium, RPMI-1640 medium, fetal calf serum, nonessential amino acids, and sodium pyruvate were purchased from Sigma, St. Louis, Mo.
(§3) PC-3 cells were maintained in RPMI-1640 medium supplemented with 10% fetal calf serum (FCS) and DU145 cells in Eagle's minimum essential medium (MEM) supplemented with 10% FCS. 1% nonessential amino acids, and 1 mM pyruvate. All cells were cultured at 37° C. in a 5% CO2/ 95% air atmosphere in 100% humidity. […] After 7 days of treatment, viable cells in each well were measured using the MTT assay as described in “Cellular Proliferation Assay,” in Protocols and Applications, 3rd Edition (Promega Corporation). […]
(§4) The plate was kept at room temperature overnight and the blue color measured at 575 nm on an ELISA plate reader. Based on the optical density of samples treated with the test compound and that of the control, the inhibitory effect of SR 16312 was evaluated.

[8] = system: DU145 cells; assay: as above; format: cell-based; conditions: concentrations of 5 μM or higher, 7 days of treatment, 575 nm
Experimental: as §1, §2, §3, §4

## CCN(CC)Cc1ccc(OCC[C@H]2CCC3C4C(CCC32C)c2ccc(O)cc2C[C@H]4C)c(OC)c1 (stereo partly drawn) [SR 16234, 3-hydroxy-7α-methyl-21-[2′-methoxy-4′-(diethylaminomethyl)-phenoxy]-19-norpregna-1,3,5(10)triene citrate]
[1]
  high-density lipoprotein (HDL) cholesterol levels: increased
  low-density lipoprotein (LDL) cholesterol levels: lowered
[2]
  anti-uterotrophic antagonist activity: complete
[3]; po
  oral bioavailability: good
[3]
  absorption: good
  half-life: good
[4]
  agonist-estrogenic activity in the skeletal system: maintenance of bone and prevention of bone loss
[5]
  antagonist-antiestrogenic activity: complete
[6]
  anti-uterotrophic antagonist activity: complete

## CCN(CC)Cc1ccc(OCC[C@H]2CCC3C4CCC5=CC(=O)CCC5C4CCC32C)c(OC)c1 (some centres unmarked) [SR 16312]
[7]
  inhibition: ~100%
[8]
  inhibition: ~100%

Reference: patent publication US7772218B2, “Synthesis of anti-estrogenic and other therapeutic steroids from 21-hydroxy-19-norpregna-4-en-3-one” (SRI International, priority 2000, dated 2010)
